Data taken from patent publication US20080300147A1, “Detection and Treatment of Fibrotic Disorders” (priority 2004, published 2008).

Key:
[1] = test system: myometrial smooth muscle cells (MSMC); assay: Realtime PCR mRNA expression in treated MSMC; type: cell-based, human
Method: Isolation and Culture of Leiomyoma and Myometrial Smooth Muscle Cells. […] Only untreated tissues were used for isolation of LSMC and MSMC. […] LSMC and MSMC were cultured in 6-well plates at an approximate density of 10^6 cells/well in DMEM-supplemented media containing 10% FBS. After reaching visual confluence, the cells were washed in serum-free media and incubated for 24 hrs under serum-free, phenol red-free condition (Chegini, N et al. Mol Hum Reprod, 2002, 8:1071-8).
Quantitative RealTime PCR. Realtime PCR was utilized for verification of 10 differentially expressed and regulated genes identified in leiomyoma and myometrium as well as LSMC and MSMC from untreated and GnRHa-treated cohorts. The selection of these genes was based not only on their expression values (up or downregulation), but classification and biological functions important to leiomyoma growth and regression, regulation by ovarian steroids, GnRHa and TGF-β. They are IL-11, CITED2, Nur77, EGR3, TGIF, TIEG, p27, p57, GAS-1 and GPRK5 representing cytokines, transcription factors, cell cycle regulators and signal transduction.
Determination of TGF-β1 on global gene expression in LSMC and MSMC. All the materials utilized for this study including isolation of leiomyoma and myometrial cells are identical to those described in detail above. To determine the effect of TGF-β1 on global gene expression in LSMC and MSMC, the cells were cultured in 6-well plates at approximate density of 10^6 cells/well in DMEM-supplemented media containing 10% FBS. […] The cells were then treated with 2.5 ng/ml of TGF-β1 (R & D System, Minneapolis, […].) for 2, 6 and 12 hours. […] The cells were washed and then treated with TGF-β1 (2.5 ng/ml) for 2 hours. Parallel experiments using untreated cells were used as controls including an additional control for TGF-β type II receptor antisense and sense experiments.
Total cellular RNA was isolated from LSMC- and MSMC-treated and untreated controls and subjected to microarray analysis. To maintain standard and allow for comparative analysis, the GeneChips used in this study were utilized, simultaneously processed and their gene expression values were subjected to global normalization and transformation. Following these unsupervised assessments the coefficient of variation was calculated for each probe set across all the chips used in this study, and the selected gene expression values of this study were independently subjected to supervised learning including R programming analysis and ANOVA with false discovery rate selected at p<0.001 (Moustakas, A. Immunol Lett, 2002, 82:85-91; Verrecchia, F. et al. J Biol Chem, 2001, 276:17058-17062). The genes identified in these cohorts were analyzed for functional annotation and visualized using Database for Annotation, Visualization, and Integrated Discovery (DAVID) software with integrated GoCharts. Following the analysis, we selected 12 of the differentially expressed and regulated genes, including 10 identified and validated in leiomyoma and myometrium from untreated and GnRHa-treated cohorts, as well as LSMC and MSMC treated in vitro with GnRHa, for validation in response to TGF-β-time dependent action using Realtime PCR. They include IL-11, EGR3, CITED2, TIEG, TGIF, Nur77, p27, p57, GAS-1 and GPRK5. In addition, the expression of Runx1 and Runx2, transcription factors that interact with TGF-β receptor signaling pathways (Zavadil, J. et al. Proc Natl Acad Sci USA, 2001, 98:6686-6691), was validated in LSMC and MSMC as well as in leiomyoma and myometrium from GnRHa-treated and untreated cohorts. Detail description of the materials and methods for Realtime PCR as well as data analysis is provided in Chegini, N. et al. J Soc Gynecol Investig, 2003, 10:161-71.
Isolation and Culture of Leiomyoma and Myometrial Smooth Muscle Cells. Leiomyoma and myometrial smooth muscle cells (LSMC and MSMC) were isolated and cultured as previously described (Chegini, N. et al. Mol Hum Reprod, 2002, 8:1071-1078). […]

leiomyoma = conditions: GnRHa treated group compared to secretory phase tissues
From the text: (§1) Western Blot Analysis and Immunohistochemical Localization. For immunoblotting, total protein was isolated from small portions of GnRHa-treated and untreated leiomyoma and myometrium as well as the GnRHa-treated and untreated cells as previously described (Ding, L et al. J Clin Endocrinol Metab, 2004, 89:5549-5557; Chegini, N et al. Mol Cell Endocrinol, 2003, 209:9-16). Following determination of the tissue homogenates and cell lysates protein content an equal amount of sample proteins were subjected to SDS-PAGE and transferred to polyvinyldiene difluoride (PVDF) membrane. The blots were incubated with anti-TIEG antibody, kindly provided by Dr. Thomas Spelsberg, Department of Biochemistry, Mayo Clinic, Rochester, Minn. (Johnsen, S A et al. Oncogene, 2002, 21:5783-90), TGIF, EGR3, p27, p57, Nur77 and Gas1 antibodies purchased from Santa Cruz Biochemical (Santa Cruz, Calif.), IL-11 antibodies purchased from R & D system (Minneapolis, Minn.) for 1 hr at room temperature. […]
(§2) Western Blot Analysis and Immunohistochemical Localization. […] The homogenates' protein contents were determined, and an equal amount was subjected to SDS-PAGE and transferred to polyvinyldiene difluoride membrane.

myometrium = conditions: GnRHa treated group compared to secretory phase tissues
From the text: as §1, §2

[2] = GnRHa 0.1 μM, 2, 6 and 12 hours

CCNC(=O)[C@@H]1CCCN1C(=O)[C@H](CCCNC(=N)N)NC(=O)[C@H](CC(C)C)NC(=O)[C@@H](CC(C)C)NC(=O)[C@H](Cc1ccc(O)cc1)NC(=O)[C@H](CO)NC(=O)[C@H](Cc1c[nH]c2ccccc12)NC(=O)[C@H](Cc1c[nH]cn1)NC(=O)[C@@H]1CCC(=O)N1 [GnRHa, leuprolide acetate]
CITED2 expression in MSMC [1, 2]: biphasic effect | GPRK5 expression in MSMC [1, 2]: inhibits | Runx1 expression in MSMC [1, 2]: time-dependent inhibition | Runx2 expression in MSMC [1, 2]: time-dependent inhibition | CCN2 mRNA expression in MSMC ([1]; GnRHa 0.1 μM, 2, 6 and 12 hrs): inhibited | CCN3 mRNA expression in MSMC ([1]; GnRHa 0.1 μM, 2, 6 and 12 hrs): inhibited | CCN4 mRNA expression in MSMC ([1]; GnRHa 0.1 μM, 2, 6 and 12 hrs): inhibited | S100A4 mRNA expression in MSMC ([1]; GnRHa 0.1 μM, 2, 6 and 12 hrs): inhibited | fibulin-1C mRNA expression in MSMC ([1]; GnRHa 0.1 μM, 2, 6 and 12 hrs): inhibited | FMOD expression in MSMC ([1]; GnRHa 0.1 μM, 2 and 6 hrs): no significant effect | FMOD expression in MSMC ([1]; GnRHa 0.1 μM, 12 hrs): inhibited | IL-11 expression in MSMC ([1]; GnRHa 0.1 μM, within 2 to 6 hours, control levels after 12 hours): increased | Nur77 expression in MSMC ([1]; GnRHa 0.1 μM, subsequently declined to control levels): rapid induction | FMOD immunoreactive intensity in leiomyoma (leiomyoma): reduction | FMOD immunoreactive intensity in myometrium (myometrium): reduction
